Values of other authors as cited in patent US20090048317A1, “Formulations of candesartan” (priority 2007, published 2009).

Conditions: in water and in methanol

CCOc1nc2cccc(C(=O)OC(C)OC(=O)OC3CCCCC3)c2n1Cc1ccc(-c2ccccc2-c2nnn[nH]2)cc1 (racemic) [Candesartan cilexetil, (±)-1-[[(cyclohexyloxy)carbonyl]oxy]ethyl-2-ethoxy-1-[[′-(1H-tetrazol-5-yl)[1,1-biphenyl]-4-yl]methyl]-1H-benzimidazole-7-carboxylate]
solubility: sparingly soluble
